Results published in patent US9067928B2 (Genentech, Inc., priority 2008, dated 2015).
pIC50, pKi: −log10 of the molar value.

Key:
Bcl-xL [1] = target: T1, Bcl-xL (Homo sapiens, UniProt Q07817); assay: TR-FRET binding assay, competition with F-Bak for Bcl-xL binding site; settings: GST-Bcl-xL, F-Bak probe
T1 construct: made in house
Method: The measurement of competition of compounds of the invention with F-Bak for a Bcl-2 family protein (Bcl-xL) binding site using a Time Resolved Fluorescence Resonance Energy Transfer (TR-FRET) Binding Assay:
Test compounds were serially diluted in DMSO starting at 50 μM (2× starting concentration; 10% DMSO) and 10 μL transferred into a 384-well plate.
The samples are then mixed on a shaker for 1 minute then incubated for an additional 2 hours at room temperature. For each assay plate, a probe/antibody and protein/antibody/probe mixture were included as a negative and a positive control, respectively. Fluorescence was measured on the Envision (Perkin Elmer) using a 340/35 nm excitation filter and 520/525 (F-Bak) and 495/510 nm (Tb-labeled anti-his antibody) emission filters. Dissociation constants (Ki) were determined using Wang's equation (see, Wang, Z. X. An exact mathematical expression for describing competitive binding of two different ligands to a protein molecule. FEBS Lett. 1995 360:111-114). The TR-FRET assay can be performed in the presence of varying concentrations of human serum (HS) or fetal bovine serum (FBS).

Bcl-xL [2] = target: T1, Bcl-xL; assay: Alpha Screen Bcl-xL binding assay, competition with Bim26-mer; settings: values listed in the order of Table 1; read-out: Alphascreen results (IC50)

T1 sequence (Q07817 whole entry, species assumed): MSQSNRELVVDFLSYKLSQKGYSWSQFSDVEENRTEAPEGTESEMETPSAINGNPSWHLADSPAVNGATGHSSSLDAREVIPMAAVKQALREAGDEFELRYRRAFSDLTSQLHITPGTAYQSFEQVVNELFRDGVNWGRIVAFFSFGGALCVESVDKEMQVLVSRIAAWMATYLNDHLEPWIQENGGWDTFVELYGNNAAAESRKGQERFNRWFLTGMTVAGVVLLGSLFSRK

Question: `O=C(O)c1nc(-c2ccc3c(c2)N(C(=O)Nc2nc4ccccc4s2)CCC3)sc1-c1ccc(-c2ccccc2)cc1` [Example 92, 2-(1-(benzo[d]thiazol-2-ylcarbamoyl)-1,2,3,4-tetrahydroquinolin-7-yl)-5-(biphenyl-4-yl)thiazole-4-carboxylic acid] was tested. Which pKi (Bcl-xL [1]) did it give?
Answer: 9.30

Question: What about the pIC50 (Bcl-xL [2]) of the same compound?
Answer: 8.70
